Experimental data taken from US11628186B2, “Method and composition for the reduction of viral replication, duration and spread of the COVID-19 and the flu” (priority 2017, dated 2023).
Like-named read-outs stand apart in the source and are kept apart here.

Tests used:
non-cancerous cells = test: Viable non-cancerous cells after incubation with anticancer drugs in various media (Table VIII); assay type: cell-based; set-up: viability: concentration or dose not given beside the values; settings: for Percentage of viable cells after incubation with drugs: drug alone
Procedure: (§1) Peripheral blood monocytes and U937 monocytic leukemia tumor cells were placed in sterile culture flasks and maintained in culture using Dulbecco's Minimal Essential Medium, with 10% fetal calf serum, supplemented with 2 mM glutamine and Pen/Strep. The cytotoxicity of the cytotoxic agent on the cells was analyzed by propidium iodide exclusion techniques and flow cytometric quantitation. Viability of the cells was quantified as the number of cells that excluded the vital dye trypan blue. Sodium pyruvate was dissolved in distilled water and the solution was adjusted to pH 7.4 with calcium, phosphate and magnesium. Solutions were sterile filtered. Stock solutions were prepared so that the vehicle would not be more than 1% of the total volume of the culture media. H-Thymidine Radiosotopic Incorporation Measurement of Cytotoxity. The membrane surfactant enhancers agents (sodium pyruvate and calcium, phosphate and magnesium), was examined for their ability to decrease the Cytotoxity of Doxorubicin to U937 monocytic leukemia cells and normal peripheral blood monocytes. […] Susceptibility studies were conducted to determine the optimal treatment time of the cells with the […] agents prior to treatment of the cells with the cytotoxic agent. The normal cells and U937 leukemic tumor cells were pretreated separately in “wash out” studies with the single agents alone, and in combination, at the optimal concentration described above for various time periods, washed with fresh medium to remove the agents, and treated with the cytotoxic agent. The co-culture of normal and U937 leukemic […] cells was treated essentially in the same manner except that the cells were not treated separately, but co-cultured. […] The cells were then placed in culture medium without the protective agents. […] Normal and U937 tumor cells were co-cultured and the Cytotoxity of Doxorubicin on the cells was determined by viability assays which examined the differential ability of the cytoprotective compositions alone, and in combinations, to protect the normal cells from the Cytotoxity of the chemotherapeutic agent. The cells were isolated and examined for morphological evidence of cytotoxicity or prevention of cytotoxicity. […] DNA synthesis studies using 3Hthymidine (1 uCi/well) were carried out 4 hours prior to termination of the experiment to determine the effect of the formulations on the proliferation of the cells as a measure of the prevention of cytotoxicity and the extent of Doxorubicin-induced cytotoxicity. Propidium iodide exclusion analysis was carried out for direct quantitation of the cytotoxicity and the prevention of cytotoxicity. Each set of studies was performed in triplicate so that statistical analysis of the significant differences between the treatment groups could be conducted. […] Wash-out studies were conducted to determine viability of the peripheral blood monocytes co-cultured with U937 monocytic leukemia cells after 24 hour pretreatment of the cells with the surfactant enhancer, which is also a mitochondrial protective agent, followed by administration of Doxorubicin.

[1] = system: patients with sinus & lung diseases including IPF and COPD; test: Salts of pyruvate as 20 mM nasal sprays (Table IX)
From the text: They never tested the individual salts for their ability to reduce inflammation or increase lung functions.

[2] = system: patients with lung diseases including COPD; test: Comparison of inhaled salts of pyruvate, 5 ml of 5 mM solution (Table II)
[3] = system: patients with lung diseases including COPD; test: Comparison of inhaled salts of pyruvate, 5 ml of 0.5 mM solution (Table I); settings: for FEV1: 5 mls of a 0.5 mM pyruvate inhalation solution in COPD and asthmatic patients
Procedure: All previous studies using pyruvate to treat Allergic Rhinitis, Asthmatic and COPD patients used only the sodium salt form of pyruvic acid in saline. The drug products that were tested in the six Phase I/II clinical trial were differing concentrations of sodium pyruvate dissolved in 0.9% sodium chloride solution (Saline). These drug products contained 0.5 mM, 1.5 mM, or 5.0 mM of sodium pyruvate in physiological saline. They were administered to normal volunteers and COPD and asthmatics by inhalation therapy. […] Various sodium pyruvate solutions were evaluated in the lungs for their ability to enhance FEV1 values and reduce coughing, and lung tightness.
The amount of the salts delivered in the 5 ml's of the 0.5 mM pyruvate solutions were compared to the amounts of the salts in 5 ml's of human blood. […] When ethyl pyruvate reacts with oxygen radical like hydrogen peroxide, it is converted to ethane and alcohol and Co2 and acetate. Ethane and alcohol are lung irritants.
This formula can also be made by adding 3% calcium phosphate or dicalcium phosphate to the standard 0.5 mM to 30 mM sodium pyruvate saline solution see Table I.

[4] = Viable non-cancerous cells after incubation with anticancer drugs in various media (Table VIII); assay type: cell-based; set-up: viability: concentration or dose not given beside the values; settings: non-cancerous cells (normal peripheral blood monocytes)
Procedure: as §1

[5] = Drugs in commercial formula with sodium chloride only
[6] = Drugs in commercial formula with sodium pyruvate with calcium & phosphate & Magnesium ions repeat study
[7] = 20 mM (0.22%) nasal spray, 1 most negative, 10 best
[8] = 5 ml of 5 mM solution in saline, inhaled
[9] = 5 ml of 5 mM solution, 1 most negative, 10 best
[10] = 5 ml of 0.5 mM solution in physiological saline, inhaled
[11] = 5 ml of 0.5 mM solution, inhaled
[12] = 5 ml of 0.5 mM solution, 1 most negative, 10 best
[13] = Drugs in commercial formula with sodium chloride only, read-out: Percentage of viable non-cancerous cells
[14] = Drugs in commercial formula with sodium pyruvate with calcium & phosphate & Magnesium ions repeat study, read-out: Percentage of viable non-cancerous cells
[15] = Drugs in commercial formula with sodium pyruvate with calcium & phosphate & magnesium ions, read-out: Percentage of viable non-cancerous cells
[16] = Drugs in commercial formula with sodium pyruvate without calcium & phosphate & magnesium, read-out: Percentage of viable non-cancerous cells
[17] = drug alone, read-out: Percentage of viable cells after incubation with drugs
[18] = Drugs in commercial formula with sodium pyruvate with calcium & phosphate & magnesium ions
[19] = Drugs in commercial formula with sodium pyruvate without calcium & phosphate & magnesium
[20] = 20 mM (0.22%) nasal spray in 0.9% sodium chloride
[21] = 5 mls of a 0.5 mM inhalation solution

Compound	Percentage of viable non-cancerous cells (non-cancerous cells; [5])	Percentage of viable cells after incubation with drugs (non-cancerous cells)	Increased in FEV-1% ([1]; in vivo)	Percentage Increase in SaO2 over baseline ([1]; in vivo)	Percentage increase of Nitric Oxide over baseline ([1]; in vivo)	Relief of congestion, coughing and lung tightness ([1]; in vivo)	Overall Rating 1-10 [1, 7]	Increased in FEV-1% [2, 8]	Percentage Increase in SaO2 over baseline ([2]; 5 ml of 5 mM solution, inhaled)	Percentage increase of Nitric Oxide over baseline ([2]; 5 ml of 5 mM solution, inhaled)	Relief of congestion, coughing and lung tightness ([2]; 5 ml of 5 mM solution, inhaled)	Overall Rating 1-10 [2, 9]	Increased in FEV-1% lung function [3, 10]	Percentage Increase in SaO2 over baseline [3, 11]	Percentage decrease or increase of Nitric Oxide over baseline [3, 11]	Relief of congestion, coughing and lung tightness [3, 11]	Overall Rating 1-10 [3, 12]	also measured
N.N.O=C([O-])C1(C(=O)[O-])CCC1.[Pt+2] [Carboplatin]	50%	42%																Percentage of viable non-cancerous cells (non-cancerous cells; [6]): 97%
O=P(O)(O)O [Potassium Phosphate, reference compound]			0.0%	No	0%	4												Overall Rating 1-10 ([1]; in vivo): 3; Increased in FEV-1% ([2]; in vivo): 0%; Overall Rating 1-10 ([2]; in vivo): 3; Percentage Increase in SaO2 over baseline ([2]; in vivo): No; Percentage increase of Nitric Oxide over baseline ([2]; in vivo): 0%; Relief of congestion, coughing and lung tightness ([2]; in vivo): 4; Increased in FEV-1% lung function ([3]; in vivo): 0%; Overall Rating 1-10 ([3]; in vivo): 3; Percentage Increase in SaO2 over baseline ([3]; in vivo): No; Percentage decrease or increase of Nitric Oxide over baseline ([3]; in vivo): 0%; Relief of congestion, coughing and lung tightness ([3]; in vivo): 4
CC(=O)C(=O)[O-].[K+] [Potassium, potassium pyruvate]			6.1%	no	10.0%	5	6	2.1%	no	25.0%	5	7	8.0%	no	−14%	5	7	Irritation ([1]; in vivo): None; Irritation ([2]; 5 ml of 5 mM solution, inhaled): None; Irritation [3, 11]: None; FEV1 [3]: lower FEV1 results
CC(C)(C#N)c1cc(Cn2cncn2)cc(C(C)(C)C#N)c1 [anastrozole]																		viability [4, 13]: 25%; viability [4, 14]: 94%; viability [4, 15]: 86%; viability [4, 16]: 50%; viability [4, 17]: 24%
O=c1[nH]c(=O)n([C@H]2C[C@H](O)[C@@H](CO)O2)cc1F [floxuridine]																		viability [4, 13]: 38%; viability [4, 14]: 91%; viability [4, 15]: 92%; viability [4, 16]: 58%; viability [4, 17]: 38%
CN(Cc1cnc2nc(N)nc(N)c2n1)c1ccc(C(=O)N[C@@H](CCC(=O)O)C(=O)O)cc1 [methotrexate]																		viability [4, 13]: 43%; viability [4, 14]: 98%; viability [4, 15]: 94%; viability [4, 16]: 68%; viability [4, 17]: 42%
O=C1[O][Pt]2([NH][C@@H]3CCCC[C@H]3[NH]2)[O]C1=O [oxaliplatin]	24%	23%																Percentage of viable non-cancerous cells (non-cancerous cells; [6]): 98%; Percentage of viable non-cancerous cells (non-cancerous cells; [18]): 95%; Percentage of viable non-cancerous cells (non-cancerous cells; [19]): 41%
Bevacizumab	27%	21%																Percentage of viable non-cancerous cells (non-cancerous cells; [19]): 40%
Bleomycin	33%	31%																Percentage of viable non-cancerous cells (non-cancerous cells; [6]): 98%; Percentage of viable non-cancerous cells (non-cancerous cells; [18]): 98%; Percentage of viable non-cancerous cells (non-cancerous cells; [19]): 47%
aluminum pyruvate							1	0%	No	15.0%	1	4	0%	No	+8.0%	1	3	Increased in FEV-1% [1, 20]: 0.0%; Percentage Increase in SaO2 over baseline [1, 20]: No; Percentage increase of Nitric Oxide over baseline [1, 20]: 00.0%; Relief of congestion, coughing and lung tightness [1, 20]: 1; reduction of nitric oxide [3, 21]: did not reduce nitric oxide
calcium pyruvate			7.0%	1%	17.0%	5	7	1.0%	1%	17.0%	5	7	10.0%	no	−18%	5	7	Irritation ([1]; in vivo): None; Irritation ([2]; 5 ml of 5 mM solution, inhaled): None; Irritation [3, 11]: None; FEV1 [3]: 10%
manganese pyruvate							3	3.0%	No	25.0%	4	3	3.0%	No	−2.0%	4	3	Increased in FEV-1% [1, 20]: 0.0%; Percentage Increase in SaO2 over baseline [1, 20]: No; Percentage increase of Nitric Oxide over baseline [1, 20]: 2.0%; Relief of congestion, coughing and lung tightness [1, 20]: 4; reduction of nitric oxide [3, 21]: did not reduce nitric oxide
zinc pyruvate			1.0%	No	2.0%	4	3	1.0%	No	22.0%	4	3	8.0%	No	+10%	4	4	Irritation ([1]; in vivo): Yes; Irritation ([2]; 5 ml of 5 mM solution, inhaled): Yes; Irritation [3, 11]: Yes; increased nitric oxide levels [3, 21]: 10%; reduction of nitric oxide [3, 21]: did not reduce nitric oxide; Irritation ([3]; inhaled into the lungs): irritating
